This note sets out measurements from ChEMBL document CHEMBL4130574, “Discovery of novel 2,4-diarylaminopyrimidine analogues as ALK and ROS1 dual inhibitors to overcome crizotinib-resistant mutants including G1202R” (Eur J Med Chem, 2018).

One may read the pIC50 as −log10 of the IC50, conventionally taken in molar units.

Molecules are shown by their SMILES. pIC50: −log10 of the molar value.

One experiment relates to NCI-H2228. In words: cells. As to conditions: Homo sapiens, NCI-H2228, 72 h.
The test system of a further experiment is A549. In words: cells. The note with it: Homo sapiens, A549, 72 h.
For a further experiment, the system named is NCI-H460. Nature of the experiment: cells. The note with it: Homo sapiens, NCI-H460, 72 h.
In another experiment the test system is KARPAS-299. Nature of the experiment: Antiproliferative activity against human KARPAS299 cells harboring NPM-ALK after 72 hrs by MTT assay. The format is functional, cell-based. As to conditions: KARPAS-299, 72 h.
The subject of a further experiment is HCC78. In words: Antiproliferative activity against human HCC78 cells harboring SLC34A2-ROS1 after 72 hrs by MTT assay. The format is functional, cell-based. As to conditions: HCC78, 72 h. A general note: Tetrazolium assays rely on reduction of a dye to a coloured formazan, in cell work by metabolically active cells.
Experiment [1] deals with Epidermal growth factor receptor (Homo sapiens, UniProt P00533).
Description: Inhibition of recombinant human N-terminal GST-tagged EGFR cytoplasmic domain (669 to 1210 residues) expressed in baculovirus expression system using peptide substrate after 1 hr by mobility shift assay
In experiment [2] the target is ALK tyrosine kinase receptor (Homo sapiens, UniProt Q9UM73).
Description: Inhibition of recombinant human N-terminal GST-tagged ALK cytoplasmic domain (1058 to 1620 residues) expressed in baculovirus expression system using peptide substrate after 1 hr by mobility shift assay
The target in experiment [3] is Hepatocyte growth factor receptor (Homo sapiens, UniProt P08581). In words: Inhibition of recombinant human N-terminal GST-tagged c-MET cytoplasmic domain (956 to 1390 residues) expressed in baculovirus expression system using peptide substrate after 1 hr by mobility shift assay.
Experiment [4] deals with Proto-oncogene tyrosine-protein kinase ROS (Homo sapiens, UniProt P08922). Nature of the experiment: Inhibition of recombinant human N-terminal GST-tagged ROS1 cytoplasmic domain (1883 to 2347 residues) expressed in baculovirus expression system using peptide substrate after 1 hr by mobility shift assay.
Chain of Proto-oncogene tyrosine-protein kinase ROS (P08922 whole entry, the tested form may be a part): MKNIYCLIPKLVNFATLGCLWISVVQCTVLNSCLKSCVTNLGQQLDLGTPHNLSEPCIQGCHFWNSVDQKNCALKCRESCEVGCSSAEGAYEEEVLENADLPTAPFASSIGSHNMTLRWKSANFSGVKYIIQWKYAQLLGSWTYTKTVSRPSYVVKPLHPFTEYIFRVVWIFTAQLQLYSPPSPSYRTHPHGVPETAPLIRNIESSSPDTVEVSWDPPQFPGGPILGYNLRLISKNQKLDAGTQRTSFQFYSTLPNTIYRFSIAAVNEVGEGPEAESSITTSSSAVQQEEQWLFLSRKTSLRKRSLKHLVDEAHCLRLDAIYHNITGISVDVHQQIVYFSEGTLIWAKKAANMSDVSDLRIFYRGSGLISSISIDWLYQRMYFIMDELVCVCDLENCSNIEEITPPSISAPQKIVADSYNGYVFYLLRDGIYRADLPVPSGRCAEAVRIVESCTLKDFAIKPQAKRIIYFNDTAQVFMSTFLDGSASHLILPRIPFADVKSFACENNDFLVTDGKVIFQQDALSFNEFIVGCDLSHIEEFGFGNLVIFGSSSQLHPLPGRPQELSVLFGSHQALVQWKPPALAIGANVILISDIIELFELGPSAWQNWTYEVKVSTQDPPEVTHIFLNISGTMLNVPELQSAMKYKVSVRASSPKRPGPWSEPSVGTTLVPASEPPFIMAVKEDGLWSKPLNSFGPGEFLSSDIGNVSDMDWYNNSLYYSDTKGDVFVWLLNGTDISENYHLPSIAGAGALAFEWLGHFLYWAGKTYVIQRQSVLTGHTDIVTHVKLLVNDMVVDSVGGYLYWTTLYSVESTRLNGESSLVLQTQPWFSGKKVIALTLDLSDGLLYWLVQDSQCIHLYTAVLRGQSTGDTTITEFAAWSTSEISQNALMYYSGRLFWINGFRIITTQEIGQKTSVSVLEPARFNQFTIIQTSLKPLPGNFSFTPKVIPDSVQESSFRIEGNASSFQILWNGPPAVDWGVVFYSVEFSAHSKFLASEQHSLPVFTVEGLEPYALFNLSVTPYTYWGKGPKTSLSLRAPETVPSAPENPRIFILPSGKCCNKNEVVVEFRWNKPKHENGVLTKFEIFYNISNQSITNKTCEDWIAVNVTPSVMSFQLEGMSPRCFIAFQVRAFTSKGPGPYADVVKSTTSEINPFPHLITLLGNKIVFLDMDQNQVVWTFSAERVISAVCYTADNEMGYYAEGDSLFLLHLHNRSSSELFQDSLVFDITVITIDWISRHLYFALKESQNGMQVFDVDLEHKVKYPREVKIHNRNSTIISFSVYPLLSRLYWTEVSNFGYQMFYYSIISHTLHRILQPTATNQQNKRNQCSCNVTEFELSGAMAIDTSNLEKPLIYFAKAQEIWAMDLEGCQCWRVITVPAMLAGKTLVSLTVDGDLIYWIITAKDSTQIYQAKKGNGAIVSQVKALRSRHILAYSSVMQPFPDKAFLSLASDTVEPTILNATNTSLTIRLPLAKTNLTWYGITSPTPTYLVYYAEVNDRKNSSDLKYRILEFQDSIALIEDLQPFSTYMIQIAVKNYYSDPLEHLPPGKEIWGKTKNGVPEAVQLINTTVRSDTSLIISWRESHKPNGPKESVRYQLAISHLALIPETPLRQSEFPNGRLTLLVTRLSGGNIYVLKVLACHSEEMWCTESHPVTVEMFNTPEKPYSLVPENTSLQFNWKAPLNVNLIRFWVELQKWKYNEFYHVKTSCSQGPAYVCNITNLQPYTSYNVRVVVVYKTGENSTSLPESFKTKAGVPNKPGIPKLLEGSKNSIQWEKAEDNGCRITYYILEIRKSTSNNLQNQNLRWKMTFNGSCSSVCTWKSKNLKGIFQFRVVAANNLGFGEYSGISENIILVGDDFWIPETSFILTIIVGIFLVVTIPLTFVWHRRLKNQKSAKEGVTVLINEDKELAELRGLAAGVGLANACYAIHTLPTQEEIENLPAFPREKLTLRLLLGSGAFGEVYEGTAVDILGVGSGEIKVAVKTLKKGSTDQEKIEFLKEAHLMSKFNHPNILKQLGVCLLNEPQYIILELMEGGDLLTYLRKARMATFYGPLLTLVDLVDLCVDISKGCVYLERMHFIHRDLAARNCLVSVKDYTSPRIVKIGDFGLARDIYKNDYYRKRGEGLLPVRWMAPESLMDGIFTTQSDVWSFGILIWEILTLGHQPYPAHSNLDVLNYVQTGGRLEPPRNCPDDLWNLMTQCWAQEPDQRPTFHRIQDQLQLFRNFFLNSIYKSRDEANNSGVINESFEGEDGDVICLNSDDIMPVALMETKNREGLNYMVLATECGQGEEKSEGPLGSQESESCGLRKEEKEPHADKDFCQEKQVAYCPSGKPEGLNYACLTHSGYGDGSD

Chain of Epidermal growth factor receptor (P00533 whole entry): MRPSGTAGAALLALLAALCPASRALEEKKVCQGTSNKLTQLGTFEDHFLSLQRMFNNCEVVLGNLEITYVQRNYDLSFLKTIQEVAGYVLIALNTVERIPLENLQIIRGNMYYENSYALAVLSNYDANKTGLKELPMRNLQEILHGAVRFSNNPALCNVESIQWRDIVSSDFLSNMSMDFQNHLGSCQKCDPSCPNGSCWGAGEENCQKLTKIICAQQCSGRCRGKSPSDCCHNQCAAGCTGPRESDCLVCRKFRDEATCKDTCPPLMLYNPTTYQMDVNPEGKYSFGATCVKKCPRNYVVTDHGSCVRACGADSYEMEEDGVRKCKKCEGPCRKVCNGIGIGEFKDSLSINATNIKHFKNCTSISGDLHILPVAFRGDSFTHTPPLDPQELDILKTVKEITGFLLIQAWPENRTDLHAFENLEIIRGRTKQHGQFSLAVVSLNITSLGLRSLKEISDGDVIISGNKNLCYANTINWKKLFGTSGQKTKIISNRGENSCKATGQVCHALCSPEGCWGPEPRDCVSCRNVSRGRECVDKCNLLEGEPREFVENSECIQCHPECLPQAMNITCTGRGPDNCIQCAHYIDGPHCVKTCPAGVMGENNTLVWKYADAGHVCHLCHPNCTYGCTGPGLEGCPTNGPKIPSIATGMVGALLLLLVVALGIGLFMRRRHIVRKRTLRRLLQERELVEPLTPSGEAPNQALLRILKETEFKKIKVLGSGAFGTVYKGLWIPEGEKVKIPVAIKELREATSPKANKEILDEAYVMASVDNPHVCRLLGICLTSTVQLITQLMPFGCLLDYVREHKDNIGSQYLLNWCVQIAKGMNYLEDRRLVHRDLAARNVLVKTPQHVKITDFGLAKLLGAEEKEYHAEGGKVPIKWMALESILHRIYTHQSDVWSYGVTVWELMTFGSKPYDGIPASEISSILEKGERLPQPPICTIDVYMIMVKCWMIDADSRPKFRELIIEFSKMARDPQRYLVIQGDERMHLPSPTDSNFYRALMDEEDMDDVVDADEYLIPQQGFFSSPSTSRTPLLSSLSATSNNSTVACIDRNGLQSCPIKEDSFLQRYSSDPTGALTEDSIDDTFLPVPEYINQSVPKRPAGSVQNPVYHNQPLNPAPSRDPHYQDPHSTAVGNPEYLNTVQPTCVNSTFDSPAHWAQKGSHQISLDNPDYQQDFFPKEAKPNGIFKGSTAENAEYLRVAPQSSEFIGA
Chain of ALK tyrosine kinase receptor (Q9UM73 whole entry, the tested form may be a part): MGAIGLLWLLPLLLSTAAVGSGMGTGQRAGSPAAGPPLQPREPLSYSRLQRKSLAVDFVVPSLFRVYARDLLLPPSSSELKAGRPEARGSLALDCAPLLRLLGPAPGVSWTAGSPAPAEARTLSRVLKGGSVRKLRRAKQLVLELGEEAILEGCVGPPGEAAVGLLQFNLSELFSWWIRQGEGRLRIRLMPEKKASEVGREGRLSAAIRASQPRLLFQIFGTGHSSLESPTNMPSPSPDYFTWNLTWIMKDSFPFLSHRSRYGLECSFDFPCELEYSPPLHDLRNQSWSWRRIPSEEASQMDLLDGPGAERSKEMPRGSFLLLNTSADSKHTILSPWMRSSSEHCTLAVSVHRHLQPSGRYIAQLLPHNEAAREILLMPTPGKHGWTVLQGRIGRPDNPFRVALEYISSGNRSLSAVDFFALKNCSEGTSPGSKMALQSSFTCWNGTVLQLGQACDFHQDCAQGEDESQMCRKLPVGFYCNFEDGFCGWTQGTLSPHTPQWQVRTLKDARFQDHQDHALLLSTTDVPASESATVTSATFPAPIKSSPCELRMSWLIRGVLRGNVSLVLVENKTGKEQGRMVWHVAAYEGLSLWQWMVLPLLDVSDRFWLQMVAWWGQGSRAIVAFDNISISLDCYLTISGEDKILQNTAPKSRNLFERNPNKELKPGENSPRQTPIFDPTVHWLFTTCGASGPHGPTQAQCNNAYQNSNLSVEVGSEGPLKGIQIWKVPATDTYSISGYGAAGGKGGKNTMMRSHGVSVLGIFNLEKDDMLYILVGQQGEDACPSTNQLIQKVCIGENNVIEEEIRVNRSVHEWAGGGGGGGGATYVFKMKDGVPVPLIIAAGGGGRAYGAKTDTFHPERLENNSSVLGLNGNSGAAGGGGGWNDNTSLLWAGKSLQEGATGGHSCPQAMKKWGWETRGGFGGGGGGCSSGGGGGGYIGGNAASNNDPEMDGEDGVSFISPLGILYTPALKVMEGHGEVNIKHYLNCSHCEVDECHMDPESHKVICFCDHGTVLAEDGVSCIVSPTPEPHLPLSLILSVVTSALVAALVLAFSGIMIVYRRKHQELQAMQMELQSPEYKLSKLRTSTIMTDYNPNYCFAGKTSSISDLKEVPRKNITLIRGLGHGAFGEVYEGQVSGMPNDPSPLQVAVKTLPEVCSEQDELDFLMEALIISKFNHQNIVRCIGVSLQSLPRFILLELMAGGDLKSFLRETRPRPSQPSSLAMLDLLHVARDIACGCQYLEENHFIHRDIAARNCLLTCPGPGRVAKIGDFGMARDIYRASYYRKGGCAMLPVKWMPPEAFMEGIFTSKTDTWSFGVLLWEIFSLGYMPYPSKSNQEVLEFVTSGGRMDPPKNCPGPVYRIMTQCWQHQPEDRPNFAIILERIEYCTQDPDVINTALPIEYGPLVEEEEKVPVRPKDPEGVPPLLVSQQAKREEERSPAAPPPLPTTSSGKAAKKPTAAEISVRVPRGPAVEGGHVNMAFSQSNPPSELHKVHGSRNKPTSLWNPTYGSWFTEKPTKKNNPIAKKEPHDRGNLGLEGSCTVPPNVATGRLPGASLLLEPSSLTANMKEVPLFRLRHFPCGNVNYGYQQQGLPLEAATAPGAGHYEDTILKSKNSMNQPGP
Description for A549: Antiproliferative activity against human A549 cells harboring EGFR after 72 hrs by MTT assay
Description for NCI-H2228: Antiproliferative activity against human NCI-H2228 cells harboring EML4-ALK after 72 hrs by MTT assay
Description for NCI-H460: Antiproliferative activity against human NCI-H460 cells after 72 hrs by MTT assay

On to `COc1cc(-n2cc(CN3CCCCC3)nn2)ccc1Nc1ncc(Cl)c(Nc2ccccc2S(=O)(=O)C(C)C)n1`, for which the negative logarithm of the IC50 (pIC50) in the experiment with NCI-H2228 is 6.70; with A549, < 6.00; in the experiment on NCI-H460 it was 6.01; in the experiment with KARPAS-299 it was 6.89; with HCC78, 6.74.

For `COc1cc(-n2cc(CN(C)C)nn2)ccc1Nc1ncc(Cl)c(Nc2ccccc2S(=O)(=O)C(C)C)n1`, the pIC50 was 6.32 in the experiment on NCI-H2228; < 6.00 in the experiment on A549; < 6.00 in the experiment with NCI-H460; < 6.00 with KARPAS-299; 6.42 with HCC78.

As for `Cc1cc(Nc2ncc(Cl)c(Nc3ccccc3S(=O)(=O)C(C)C)n2)c(OC(C)C)cc1C1CCNCC1` [CERITINIB], the negative-log IC50 (pIC50) in the experiment with NCI-H2228 was 7.00; with A549, < 6.00; in the experiment on NCI-H460, < 6.00.

Turning to `COc1cc(-c2nc(CN3CCCC3)cs2)ccc1Nc1ncc(Cl)c(Nc2ccccc2S(=O)(=O)C(C)C)n1`, the pIC50 in the experiment with NCI-H2228 is 6.47; in the experiment on A549 it was < 6.00; with NCI-H460, < 6.00; with KARPAS-299 it was 6.85; in the experiment on HCC78 it was 6.11.

Take `COc1cc(-c2nc(CN3CCCCC3)cs2)ccc1Nc1ncc(Cl)c(Nc2ccccc2S(=O)(=O)C(C)C)n1`: the pIC50 in the experiment with NCI-H2228 was 6.74; with A549, < 6.00; with NCI-H460 it was < 6.00; in the experiment on KARPAS-299 it was 7.00; in the experiment on HCC78 it was 6.37.

As for `CC(C)Oc1cc(-c2nc(CNCCO)cs2)ccc1Nc1ncc(Cl)c(Nc2ccccc2S(=O)(=O)C(C)C)n1`, the pIC50 in the experiment on NCI-H2228 is 6.46; in the experiment on A549, < 6.00; in the experiment on NCI-H460, < 6.00; with KARPAS-299 it was 6.72; with HCC78 it was < 6.00.

With `COc1cc(-n2cc(CN3CCC[C@H]3CO)nn2)ccc1Nc1ncc(Cl)c(Nc2ccccc2S(=O)(=O)C(C)C)n1`, the pIC50 is 6.42 in the experiment with NCI-H2228; 6.04 with A549; < 6.00 with NCI-H460; 6.49 in the experiment on KARPAS-299; 6.28 in the experiment on HCC78.

As to `COc1cc(-n2cc(CN3CCCC3)nn2)ccc1Nc1ncc(Cl)c(Nc2ccccc2S(=O)(=O)C(C)C)n1`, the pIC50 with NCI-H2228 is 6.39; with A549, < 6.00; with NCI-H460 it was < 6.00; in the experiment on KARPAS-299 it was 6.42; in the experiment with HCC78, 6.57.

On to `CCN(CC)Cc1cn(-c2ccc(Nc3ncc(Cl)c(Nc4ccccc4S(=O)(=O)C(C)C)n3)c(OC)c2)nn1`, for which the pIC50 with NCI-H2228 is < 6.00; with A549, < 6.00; in the experiment with NCI-H460, < 6.00; in the experiment with KARPAS-299, 6.30; in the experiment with HCC78 it was < 6.00.

As for `CC(C)Oc1cc(-c2nc(CN3CCN(C)CC3)cs2)ccc1Nc1ncc(Cl)c(Nc2ccccc2S(=O)(=O)C(C)C)n1`, the negative-log IC50 (pIC50) in the experiment on NCI-H2228 was 7.00; with A549, < 6.00; in experiment [1] it was < 6.00; in the experiment on NCI-H460, < 6.00; in experiment [2] it was 8.47; with KARPAS-299, 7.55. Further, the negative-log IC50 (pIC50) is < 6.00 in experiment [3], 6.09 in the experiment with HCC78 and 7.71 in experiment [4].

Turning to `COc1cc(-n2cc(CN3CCN(S(C)(=O)=O)CC3)nn2)ccc1Nc1ncc(Cl)c(Nc2ccccc2S(=O)(=O)C(C)C)n1`, the negative-log IC50 (pIC50) with NCI-H2228 was 6.54; in the experiment with A549, 6.15; in the experiment on NCI-H460 it was < 6.00; in the experiment with KARPAS-299, 6.85; in the experiment on HCC78 it was 6.28.

`COc1cc(-n2cc(CN3C[C@@H](C)N[C@@H](C)C3)nn2)ccc1Nc1ncc(Cl)c(Nc2ccccc2S(=O)(=O)C(C)C)n1`: the negative-log IC50 (pIC50) with NCI-H2228 is 7.10; in the experiment on A549, < 6.00; in [1], 6.06; in the experiment with NCI-H460, 6.06; in experiment [2], 8.52; with KARPAS-299, 7.43. Further, the pIC50 in experiment [3] is 6.14; in the experiment with HCC78, 7.02; in experiment [4], 8.52.

In the case of `COc1cc(-c2nc(CNCCO)cs2)ccc1Nc1ncc(Cl)c(Nc2ccccc2S(=O)(=O)C(C)C)n1`, the pIC50 is 6.52 in the experiment with NCI-H2228; < 6.00 in the experiment on A549; < 6.00 with NCI-H460; 6.64 with KARPAS-299; 6.48 in the experiment with HCC78.

In the case of `COc1cc(-c2nc(CN3CCC[C@H]3CO)cs2)ccc1Nc1ncc(Cl)c(Nc2ccccc2S(=O)(=O)C(C)C)n1`, the pIC50 in the experiment on NCI-H2228 was 6.64; with A549, < 6.00; with NCI-H460, < 6.00; in the experiment on KARPAS-299, 6.80; with HCC78 it was 6.33.

For the compound `COc1cc(-c2nc(CN3CCOCC3)cs2)ccc1Nc1ncc(Cl)c(Nc2ccccc2S(=O)(=O)C(C)C)n1`, the pIC50 in the experiment on NCI-H2228 was 6.89; in the experiment with A549 it was < 6.00; in the experiment on NCI-H460 it was < 6.00; in the experiment with KARPAS-299, 6.82; in the experiment on HCC78 it was 6.31.

Take `COc1cc(-n2cc(CN3CCN(C(C)=O)CC3)nn2)ccc1Nc1ncc(Cl)c(Nc2ccccc2S(=O)(=O)C(C)C)n1`: the pIC50 was 6.51 with NCI-H2228; < 6.00 in the experiment on A549; < 6.00 in the experiment on NCI-H460; 6.55 in the experiment with KARPAS-299; 6.46 in the experiment on HCC78.

`COc1cc(-n2cc(CNO)nn2)ccc1Nc1ncc(Cl)c(Nc2ccccc2S(=O)(=O)C(C)C)n1`: the pIC50 is < 6.00 in the experiment on NCI-H2228; < 6.00 in the experiment on A549; < 6.00 with NCI-H460; 6.09 in the experiment on KARPAS-299; < 6.00 in the experiment on HCC78.

`CC1CCN(Cc2csc(-c3ccc(Nc4ncc(Cl)c(Nc5ccccc5S(=O)(=O)C(C)C)n4)c(OC(C)C)c3)n2)CC1`: the pIC50 is 6.55 in the experiment on NCI-H2228; < 6.00 in the experiment with A549; < 6.00 in the experiment with NCI-H460; 6.62 in the experiment on KARPAS-299; < 6.00 in the experiment on HCC78.

As for `CC(C)Oc1cc(-c2nc(CNC3CC3)cs2)ccc1Nc1ncc(Cl)c(Nc2ccccc2S(=O)(=O)C(C)C)n1`, the pIC50 in the experiment on NCI-H2228 was 6.43; in the experiment with A549, < 6.00; in the experiment with NCI-H460, < 6.00; in the experiment on KARPAS-299, 6.62; with HCC78, < 6.00.

Consider `COc1cc(-n2cc(CN3CCOCC3)nn2)ccc1Nc1ncc(Cl)c(Nc2ccccc2S(=O)(=O)C(C)C)n1`, for which the pIC50 in the experiment on NCI-H2228 was 6.82; in the experiment on A549, < 6.00; with NCI-H460, < 6.00; in the experiment with KARPAS-299, 6.74; with HCC78 it was 6.62.

Turning to `COc1cc(-c2nc(CN3CCC(C)CC3)cs2)ccc1Nc1ncc(Cl)c(Nc2ccccc2S(=O)(=O)C(C)C)n1`, the pIC50 was 6.64 in the experiment on NCI-H2228; 6.10 with A549; < 6.00 in [1]; < 6.00 with NCI-H460; 8.52 in experiment [2]; 6.72 with KARPAS-299. Moreover, the pIC50 was 6.01 in experiment [3], 6.42 in the experiment on HCC78 and 8.07 in [4].

In the case of `CCN(CC)Cc1csc(-c2ccc(Nc3ncc(Cl)c(Nc4ccccc4S(=O)(=O)C(C)C)n3)c(OC(C)C)c2)n1`, the pIC50 with NCI-H2228 was 6.30; in the experiment on A549 it was < 6.00; in the experiment with NCI-H460, 6.12; in the experiment with KARPAS-299, 6.49; in the experiment on HCC78 it was 6.04.

As to `CC(C)Oc1cc(-c2nc(CN3CCC[C@H]3CO)cs2)ccc1Nc1ncc(Cl)c(Nc2ccccc2S(=O)(=O)C(C)C)n1`, the pIC50 in the experiment with NCI-H2228 is 6.52; with A549, 6.07; in the experiment with NCI-H460, < 6.00; in the experiment on KARPAS-299, 6.70; with HCC78, < 6.00.

Turning to `CC(C)Oc1cc(-c2nc(CN3CCOCC3)cs2)ccc1Nc1ncc(Cl)c(Nc2ccccc2S(=O)(=O)C(C)C)n1`, the pIC50 was 6.46 with NCI-H2228; < 6.00 in the experiment on A549; 6.16 in the experiment with NCI-H460; 6.85 with KARPAS-299; < 6.00 in the experiment with HCC78.

For `CC(C)Oc1cc(-c2nc(CN3CCCC3)cs2)ccc1Nc1ncc(Cl)c(Nc2ccccc2S(=O)(=O)C(C)C)n1`, the pIC50 with NCI-H2228 was 6.46; with A549 it was < 6.00; with NCI-H460, < 6.00; in the experiment with KARPAS-299, 6.72; with HCC78, < 6.00.

As to `CC(C)Oc1cc(-c2nc(CN3CCN(CCO)CC3)cs2)ccc1Nc1ncc(Cl)c(Nc2ccccc2S(=O)(=O)C(C)C)n1`, the pIC50 with NCI-H2228 was 7.05; in the experiment with A549, < 6.00; in experiment [1] it was < 6.00; in the experiment with NCI-H460, < 6.00; in experiment [2], 8.40; with KARPAS-299 it was 7.66. For the same compound, the negative logarithm of the IC50 (pIC50) in experiment [3] was < 6.00; with HCC78 it was 6.24; in experiment [4], 7.87.

As for `COc1cc(-n2cc(CN3CCC(C)CC3)nn2)ccc1Nc1ncc(Cl)c(Nc2ccccc2S(=O)(=O)C(C)C)n1`, the pIC50 in the experiment on NCI-H2228 is 6.72; in the experiment on A549 it was < 6.00; in experiment [1] it was < 6.00; in the experiment with NCI-H460 it was < 6.00; in experiment [2] it was 8.41; in the experiment with KARPAS-299, 6.60. The pIC50 in [3] is 6.15; in the experiment with HCC78, 6.49; in experiment [4], 8.34.

As to `COc1cc(-n2cc(CN3CCNCC3)nn2)ccc1Nc1ncc(Cl)c(Nc2ccccc2S(=O)(=O)C(C)C)n1`, the pIC50 in the experiment with NCI-H2228 was 7.06; with A549, < 6.00; in experiment [1], 6.05; with NCI-H460, < 6.00; in [2], 8.37; with KARPAS-299 it was 7.46. In addition, the pIC50 is < 6.00 in [3], 7.09 with HCC78 and 8.10 in [4].

`CC(C)Oc1cc(-c2nc(CN3CCCCC3)cs2)ccc1Nc1ncc(Cl)c(Nc2ccccc2S(=O)(=O)C(C)C)n1`: the pIC50 in the experiment on NCI-H2228 is 6.64; in the experiment on A549, < 6.00; in the experiment on NCI-H460 it was < 6.00; in the experiment with KARPAS-299, 6.92; in the experiment on HCC78, < 6.00.
